pIC50, pKi: −log10 of the molar value.
Legend:
[1] = biological target: Sodium-dependent noradrenaline transporter (Homo sapiens, UniProt P23975); experiment: DRUGMATRIX: Norepinephrine Transporter radioligand binding (ligand: [125I] RTI-55); format: cell membranes, MDCK, Membrane; settings: Not Active = under 50% inhibition at 10 µM; for IC50: mdck
[2] = biological target: 5-hydroxytryptamine receptor 2B (Homo sapiens, UniProt P41595); format: cell membranes, CHO-K1, Membrane; settings: for IC50: cho-k1; for all read-outs here: in other assays of this panel Not Active means under 50% inhibition at 10 µM
[3] = DRUGMATRIX: GABAA, Flunitrazepam, Central radioligand binding (ligand: [3H] Flunitrazepam); format: cell membranes, Rattus norvegicus, Wistar, Brain, Membrane; settings: Not Active = under 50% inhibition at 10 µM
[4] = DRUGMATRIX: Glutamate, NMDA, Agonism radioligand binding (ligand: [3H] CGP-39653); format: cell membranes, Rattus norvegicus, Wistar, Cerebral cortex, Membrane; settings: Not Active = under 50% inhibition at 10 µM
[5] = biological target: T1, Muscarinic acetylcholine receptor M5 (Homo sapiens, UniProt P08912); format: cell membranes, CHO-K1, Membrane; settings: cho-k1; note: in other assays of this panel Not Active means under 50% inhibition at 10 µM
T1 sequence (P08912 whole entry): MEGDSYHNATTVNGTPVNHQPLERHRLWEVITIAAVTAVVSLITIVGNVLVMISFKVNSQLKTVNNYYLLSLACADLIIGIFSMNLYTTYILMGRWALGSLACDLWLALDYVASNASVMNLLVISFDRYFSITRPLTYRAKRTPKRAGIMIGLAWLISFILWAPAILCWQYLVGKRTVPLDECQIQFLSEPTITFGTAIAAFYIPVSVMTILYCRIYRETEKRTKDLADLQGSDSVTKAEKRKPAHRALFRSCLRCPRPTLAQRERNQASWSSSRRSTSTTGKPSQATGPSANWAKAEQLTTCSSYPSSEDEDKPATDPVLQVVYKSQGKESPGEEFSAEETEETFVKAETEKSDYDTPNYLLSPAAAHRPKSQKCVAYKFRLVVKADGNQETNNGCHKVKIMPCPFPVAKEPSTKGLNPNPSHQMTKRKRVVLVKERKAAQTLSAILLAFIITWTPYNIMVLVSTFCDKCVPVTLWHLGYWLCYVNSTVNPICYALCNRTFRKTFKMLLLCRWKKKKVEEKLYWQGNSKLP

Nitric oxide synthase 1 = Nitric oxide synthase 1 (Rattus norvegicus, UniProt P29476); format: tissue-based, Cerebellum; note: in other assays of this panel Not Active means under 50% inhibition at 10 µM
[6] = DRUGMATRIX: Potassium Channel [KATP] radioligand binding (ligand: [3H] Glyburide); format: cell membranes, Membrane; settings: hit-t15; Not Active = under 50% inhibition at 10 µM
Cytochrome P450 2C19 = Cytochrome P450 2C19 (Homo sapiens, UniProt P33261); settings: bti-tn-5b1-4; note: in other assays of this panel Not Active means under 50% inhibition at 10 µM
Cytochrome P450 2D6 = Cytochrome P450 2D6 (Homo sapiens, UniProt P10635); settings: bti-tn-5b1-4; note: in other assays of this panel Not Active means under 50% inhibition at 10 µM
Cytochrome P450 3A4 = Cytochrome P450 3A4 (Homo sapiens, UniProt P08684); settings: bti-tn-5b1-4; note: in other assays of this panel Not Active means under 50% inhibition at 10 µM
Estrogen receptor = biological target: T2, Estrogen receptor (Homo sapiens, UniProt P03372); settings: sf9; note: in other assays of this panel Not Active means under 50% inhibition at 10 µM
T2 sequence (P03372 whole entry): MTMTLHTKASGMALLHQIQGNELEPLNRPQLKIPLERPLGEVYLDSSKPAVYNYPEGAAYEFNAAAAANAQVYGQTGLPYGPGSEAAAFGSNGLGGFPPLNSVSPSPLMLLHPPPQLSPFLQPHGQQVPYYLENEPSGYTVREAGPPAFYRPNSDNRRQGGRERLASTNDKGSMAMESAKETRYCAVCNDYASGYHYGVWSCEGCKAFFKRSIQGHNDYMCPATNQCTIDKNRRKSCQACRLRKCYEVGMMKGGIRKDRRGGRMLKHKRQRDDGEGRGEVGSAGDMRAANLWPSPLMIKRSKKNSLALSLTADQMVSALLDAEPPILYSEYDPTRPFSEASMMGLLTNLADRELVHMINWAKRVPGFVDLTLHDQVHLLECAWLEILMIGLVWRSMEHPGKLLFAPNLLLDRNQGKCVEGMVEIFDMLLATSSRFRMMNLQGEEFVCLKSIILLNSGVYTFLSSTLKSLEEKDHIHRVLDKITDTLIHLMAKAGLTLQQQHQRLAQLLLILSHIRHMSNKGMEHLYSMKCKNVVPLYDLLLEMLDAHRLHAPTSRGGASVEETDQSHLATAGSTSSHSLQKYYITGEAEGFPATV

Estrogen receptor beta = Estrogen receptor beta (Homo sapiens, UniProt Q92731); settings: sf9; note: in other assays of this panel Not Active means under 50% inhibition at 10 µM
Glucocorticoid receptor = biological target: T3, Glucocorticoid receptor (Homo sapiens, UniProt P04150); settings: hela s3; note: in other assays of this panel Not Active means under 50% inhibition at 10 µM
T3 sequence (P04150 whole entry): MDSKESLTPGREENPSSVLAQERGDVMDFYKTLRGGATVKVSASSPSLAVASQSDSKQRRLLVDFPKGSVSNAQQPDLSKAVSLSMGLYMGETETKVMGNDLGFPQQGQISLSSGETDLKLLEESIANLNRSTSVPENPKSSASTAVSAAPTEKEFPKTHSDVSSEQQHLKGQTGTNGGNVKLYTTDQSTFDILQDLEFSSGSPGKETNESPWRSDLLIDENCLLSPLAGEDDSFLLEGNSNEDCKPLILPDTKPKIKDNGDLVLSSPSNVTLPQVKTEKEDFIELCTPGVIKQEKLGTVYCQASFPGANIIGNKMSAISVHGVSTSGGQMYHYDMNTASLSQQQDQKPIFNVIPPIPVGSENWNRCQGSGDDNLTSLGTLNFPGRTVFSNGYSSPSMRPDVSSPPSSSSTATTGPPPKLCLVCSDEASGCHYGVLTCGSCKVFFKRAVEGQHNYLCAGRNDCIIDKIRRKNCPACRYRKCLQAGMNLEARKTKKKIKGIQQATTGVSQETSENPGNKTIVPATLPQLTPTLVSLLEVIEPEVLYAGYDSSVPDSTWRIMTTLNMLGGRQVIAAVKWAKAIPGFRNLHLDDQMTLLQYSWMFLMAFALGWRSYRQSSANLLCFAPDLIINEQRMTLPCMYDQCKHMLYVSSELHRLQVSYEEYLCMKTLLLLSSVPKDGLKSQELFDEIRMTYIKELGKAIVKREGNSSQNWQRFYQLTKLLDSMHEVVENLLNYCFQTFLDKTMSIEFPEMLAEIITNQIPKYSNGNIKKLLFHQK

[7] = biological target: Voltage-gated inwardly rectifying potassium channel KCNH2 (Homo sapiens, UniProt Q12809); settings: hek293; note: in other assays of this panel Not Active means under 50% inhibition at 10 µM
Sequence of Voltage-gated inwardly rectifying potassium channel KCNH2 (Q12809 whole entry): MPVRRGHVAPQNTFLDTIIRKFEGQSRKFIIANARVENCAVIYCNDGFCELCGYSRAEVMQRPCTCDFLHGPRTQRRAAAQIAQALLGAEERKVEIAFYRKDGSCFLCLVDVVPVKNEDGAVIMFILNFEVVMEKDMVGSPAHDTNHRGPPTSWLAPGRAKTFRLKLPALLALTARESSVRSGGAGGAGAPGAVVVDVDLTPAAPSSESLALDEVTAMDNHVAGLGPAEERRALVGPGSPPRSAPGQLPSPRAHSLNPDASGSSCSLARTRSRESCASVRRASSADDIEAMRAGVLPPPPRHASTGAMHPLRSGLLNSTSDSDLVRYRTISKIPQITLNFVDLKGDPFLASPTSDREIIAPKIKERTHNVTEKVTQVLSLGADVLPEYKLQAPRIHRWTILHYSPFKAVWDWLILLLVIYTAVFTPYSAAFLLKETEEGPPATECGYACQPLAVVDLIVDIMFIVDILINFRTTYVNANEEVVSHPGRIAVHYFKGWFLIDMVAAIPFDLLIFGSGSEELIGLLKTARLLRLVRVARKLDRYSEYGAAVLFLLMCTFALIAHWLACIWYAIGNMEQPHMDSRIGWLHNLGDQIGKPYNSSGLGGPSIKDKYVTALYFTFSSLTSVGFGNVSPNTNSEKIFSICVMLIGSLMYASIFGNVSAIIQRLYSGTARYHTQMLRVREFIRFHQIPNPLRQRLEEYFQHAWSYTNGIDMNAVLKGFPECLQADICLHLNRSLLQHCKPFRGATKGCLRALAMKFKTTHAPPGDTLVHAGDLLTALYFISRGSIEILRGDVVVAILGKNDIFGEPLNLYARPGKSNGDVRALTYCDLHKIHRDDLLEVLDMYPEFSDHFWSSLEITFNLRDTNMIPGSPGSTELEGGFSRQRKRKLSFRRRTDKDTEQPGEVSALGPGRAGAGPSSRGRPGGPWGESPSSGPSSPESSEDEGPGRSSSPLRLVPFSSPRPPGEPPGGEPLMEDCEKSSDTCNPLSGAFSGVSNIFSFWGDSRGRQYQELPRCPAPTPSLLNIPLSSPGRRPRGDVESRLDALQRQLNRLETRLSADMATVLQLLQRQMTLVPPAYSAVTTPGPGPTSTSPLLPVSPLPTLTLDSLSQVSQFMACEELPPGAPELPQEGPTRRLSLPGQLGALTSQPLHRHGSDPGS

Sequence of Sodium-dependent noradrenaline transporter (P23975 whole entry): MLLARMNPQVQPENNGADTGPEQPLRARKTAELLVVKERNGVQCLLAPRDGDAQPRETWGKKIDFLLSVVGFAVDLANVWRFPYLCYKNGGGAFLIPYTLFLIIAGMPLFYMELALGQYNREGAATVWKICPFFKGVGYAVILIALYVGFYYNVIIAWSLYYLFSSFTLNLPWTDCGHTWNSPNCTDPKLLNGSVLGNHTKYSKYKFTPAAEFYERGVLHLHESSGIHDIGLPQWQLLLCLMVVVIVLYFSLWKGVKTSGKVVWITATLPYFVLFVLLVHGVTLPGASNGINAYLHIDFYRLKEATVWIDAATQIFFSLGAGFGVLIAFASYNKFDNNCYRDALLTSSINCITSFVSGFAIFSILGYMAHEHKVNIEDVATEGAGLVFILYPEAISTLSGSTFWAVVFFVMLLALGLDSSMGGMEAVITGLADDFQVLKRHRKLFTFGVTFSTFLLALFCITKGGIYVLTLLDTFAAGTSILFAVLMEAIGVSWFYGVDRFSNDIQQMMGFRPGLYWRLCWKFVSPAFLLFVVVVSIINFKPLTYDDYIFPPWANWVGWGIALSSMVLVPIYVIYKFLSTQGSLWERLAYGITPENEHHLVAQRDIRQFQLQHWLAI
Sequence of Estrogen receptor beta (Q92731 whole entry): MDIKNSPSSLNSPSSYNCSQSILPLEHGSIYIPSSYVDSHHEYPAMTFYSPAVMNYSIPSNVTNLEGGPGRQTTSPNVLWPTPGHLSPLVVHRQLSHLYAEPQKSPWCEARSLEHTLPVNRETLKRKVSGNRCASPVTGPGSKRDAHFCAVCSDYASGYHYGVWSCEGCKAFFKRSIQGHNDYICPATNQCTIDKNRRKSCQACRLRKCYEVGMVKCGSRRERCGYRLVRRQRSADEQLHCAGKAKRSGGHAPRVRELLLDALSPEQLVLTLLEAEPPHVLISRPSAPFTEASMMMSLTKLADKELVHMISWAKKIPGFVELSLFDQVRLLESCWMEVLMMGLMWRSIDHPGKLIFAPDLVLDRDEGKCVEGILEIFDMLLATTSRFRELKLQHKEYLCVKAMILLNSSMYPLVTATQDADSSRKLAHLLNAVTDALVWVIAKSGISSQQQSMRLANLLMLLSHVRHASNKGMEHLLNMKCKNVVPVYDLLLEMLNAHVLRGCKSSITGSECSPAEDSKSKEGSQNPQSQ
Sequence of 5-hydroxytryptamine receptor 2B (P41595 whole entry): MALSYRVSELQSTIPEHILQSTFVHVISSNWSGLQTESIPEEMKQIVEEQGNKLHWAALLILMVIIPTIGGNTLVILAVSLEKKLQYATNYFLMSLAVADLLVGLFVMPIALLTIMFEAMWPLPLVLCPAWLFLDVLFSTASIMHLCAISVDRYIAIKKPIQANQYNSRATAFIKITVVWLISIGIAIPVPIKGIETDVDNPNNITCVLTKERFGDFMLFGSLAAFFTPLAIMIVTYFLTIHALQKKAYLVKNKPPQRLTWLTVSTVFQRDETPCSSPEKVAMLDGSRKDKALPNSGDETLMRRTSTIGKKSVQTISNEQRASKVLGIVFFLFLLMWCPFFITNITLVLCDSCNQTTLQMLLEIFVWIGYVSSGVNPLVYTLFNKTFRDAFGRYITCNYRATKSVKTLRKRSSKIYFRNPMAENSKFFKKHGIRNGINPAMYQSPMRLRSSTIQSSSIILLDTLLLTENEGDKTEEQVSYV
Sequence of Nitric oxide synthase 1 (P29476 whole entry): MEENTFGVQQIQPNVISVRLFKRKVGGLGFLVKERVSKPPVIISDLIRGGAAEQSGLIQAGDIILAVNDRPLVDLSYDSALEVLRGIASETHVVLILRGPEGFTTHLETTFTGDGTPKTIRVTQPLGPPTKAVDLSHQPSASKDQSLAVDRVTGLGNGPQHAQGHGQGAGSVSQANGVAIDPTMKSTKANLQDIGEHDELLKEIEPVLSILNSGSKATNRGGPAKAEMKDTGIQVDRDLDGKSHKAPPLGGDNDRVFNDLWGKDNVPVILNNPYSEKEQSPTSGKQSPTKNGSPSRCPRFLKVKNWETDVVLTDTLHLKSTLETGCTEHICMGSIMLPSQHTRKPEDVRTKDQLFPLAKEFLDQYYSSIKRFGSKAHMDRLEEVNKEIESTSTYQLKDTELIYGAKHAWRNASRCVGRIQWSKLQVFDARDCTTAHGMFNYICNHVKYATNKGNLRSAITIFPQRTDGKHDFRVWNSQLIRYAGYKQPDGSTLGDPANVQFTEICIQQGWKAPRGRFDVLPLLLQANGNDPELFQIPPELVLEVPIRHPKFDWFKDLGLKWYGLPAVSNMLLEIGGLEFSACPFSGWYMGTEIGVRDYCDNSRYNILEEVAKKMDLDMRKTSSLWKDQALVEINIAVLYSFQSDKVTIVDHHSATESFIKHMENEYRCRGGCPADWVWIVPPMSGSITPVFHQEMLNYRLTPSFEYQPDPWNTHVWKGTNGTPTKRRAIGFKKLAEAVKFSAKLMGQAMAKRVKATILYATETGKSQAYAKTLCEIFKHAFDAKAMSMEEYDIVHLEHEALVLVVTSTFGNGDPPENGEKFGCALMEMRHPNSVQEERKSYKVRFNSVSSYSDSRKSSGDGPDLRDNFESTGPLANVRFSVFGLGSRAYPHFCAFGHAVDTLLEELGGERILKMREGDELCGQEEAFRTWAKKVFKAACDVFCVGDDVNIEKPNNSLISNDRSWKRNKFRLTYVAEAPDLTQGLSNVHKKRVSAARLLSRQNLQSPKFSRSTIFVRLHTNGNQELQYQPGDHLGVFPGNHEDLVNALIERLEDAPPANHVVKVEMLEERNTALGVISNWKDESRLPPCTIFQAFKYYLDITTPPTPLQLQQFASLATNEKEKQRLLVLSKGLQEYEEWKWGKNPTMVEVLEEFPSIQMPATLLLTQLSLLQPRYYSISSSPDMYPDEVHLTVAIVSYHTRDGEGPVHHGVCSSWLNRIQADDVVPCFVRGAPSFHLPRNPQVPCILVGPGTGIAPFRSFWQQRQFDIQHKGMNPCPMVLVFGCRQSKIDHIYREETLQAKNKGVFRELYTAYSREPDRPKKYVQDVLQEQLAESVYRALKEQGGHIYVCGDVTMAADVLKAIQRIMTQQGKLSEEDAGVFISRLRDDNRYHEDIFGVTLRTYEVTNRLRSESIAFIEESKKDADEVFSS
Sequence of Cytochrome P450 3A4 (P08684 whole entry): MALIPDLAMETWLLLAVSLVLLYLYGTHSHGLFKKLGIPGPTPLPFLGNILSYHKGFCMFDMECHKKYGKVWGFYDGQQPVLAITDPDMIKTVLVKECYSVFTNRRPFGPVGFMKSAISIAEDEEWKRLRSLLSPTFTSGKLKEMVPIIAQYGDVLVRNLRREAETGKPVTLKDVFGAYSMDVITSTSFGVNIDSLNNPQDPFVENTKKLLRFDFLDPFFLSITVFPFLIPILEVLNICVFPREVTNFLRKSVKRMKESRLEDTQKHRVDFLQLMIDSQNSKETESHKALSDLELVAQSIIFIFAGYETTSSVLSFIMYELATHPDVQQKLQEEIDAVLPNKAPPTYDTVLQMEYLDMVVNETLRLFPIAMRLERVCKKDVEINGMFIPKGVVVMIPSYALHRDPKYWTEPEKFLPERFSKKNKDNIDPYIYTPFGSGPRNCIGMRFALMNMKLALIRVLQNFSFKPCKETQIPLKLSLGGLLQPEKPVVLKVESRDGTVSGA

In the case of CC1(C)[C@H]2CC[C@]1(C)C(=O)C2 [(-)-CAMPHOR], the IC50 [1] was “Not Active”, the IC50 [2] was “Not Active” and the IC50 [3] was “Not Active”. For the same molecule, the Ki [3] was “Not Active”, the IC50 [4] was “Not Active” and the Ki [4] was “Not Active”. For the same molecule, the IC50 [5] was “Not Active”, the IC50 (Nitric oxide synthase 1) was “Not Active” and the IC50 [6] was “Not Active”. The Ki [6] was “Not Active”, the IC50 (Cytochrome P450 2C19) was “Not Active” and the Ki (Cytochrome P450 2C19) was “Not Active”. For the same molecule, the IC50 (Cytochrome P450 2D6) was “Not Active”, the Ki (Cytochrome P450 2D6) was “Not Active” and the IC50 (Cytochrome P450 3A4) was “Not Active”. For the same molecule, the Ki (Cytochrome P450 3A4) was “Not Active”, the IC50 (Estrogen receptor) was “Not Active” and the IC50 (Estrogen receptor beta) was “Not Active”. For the same molecule, the IC50 (Glucocorticoid receptor) was “Not Active”, the IC50 [7] was “Not Active” and the Ki [7] was “Not Active”.
With CC(C)(C)NCC(O)c1ccc(O)c(CO)c1 (stereo not drawn) [ALBUTEROL] the IC50 [1] was “Not Active”, the IC50 [2] was “Not Active” and the IC50 [3] was “Not Active”. For the same molecule, the Ki [3] was “Not Active”, the IC50 [4] was “Not Active” and the Ki [4] was “Not Active”. For the same molecule, the IC50 [5] was “Not Active”, the IC50 (Nitric oxide synthase 1) was “Not Active” and the IC50 [6] was “Not Active”. The Ki [6] was “Not Active”, the IC50 (Cytochrome P450 2C19) was “Not Active” and the Ki (Cytochrome P450 2C19) was “Not Active”. The IC50 (Cytochrome P450 2D6) was “Not Active”, the Ki (Cytochrome P450 2D6) was “Not Active” and the IC50 (Cytochrome P450 3A4) was “Not Active”. The Ki (Cytochrome P450 3A4) was “Not Active”, the IC50 (Estrogen receptor) was “Not Active” and the IC50 (Estrogen receptor beta) was “Not Active”. For the same molecule, the IC50 (Glucocorticoid receptor) was “Not Active”, the IC50 [7] was “Not Active” and the Ki [7] was “Not Active”.
In the case of Oc1c(I)cc(I)c2cccnc12 [IODOQUINOL], the IC50 [1] was “Not Active”, the IC50 [2] was “Not Active” and the IC50 [3] was “Not Active”. For the same molecule, the Ki [3] was “Not Active”, the IC50 [4] was “Not Active” and the Ki [4] was “Not Active”. The IC50 [5] was “Not Active”, the IC50 (Nitric oxide synthase 1) was “Not Active” and the IC50 [6] was “Not Active”. For the same molecule, the Ki [6] was “Not Active”, the IC50 (Cytochrome P450 2C19) was “Not Active” and the Ki (Cytochrome P450 2C19) was “Not Active”. For the same molecule, the IC50 (Cytochrome P450 2D6) was “Not Active”, the Ki (Cytochrome P450 2D6) was “Not Active” and the IC50 (Cytochrome P450 3A4) was “Not Active”. For the same molecule, the Ki (Cytochrome P450 3A4) was “Not Active”, the IC50 (Estrogen receptor) was “Not Active” and the IC50 (Estrogen receptor beta) was “Not Active”. For the same molecule, the IC50 (Glucocorticoid receptor) was “Not Active”, the IC50 [7] was “Not Active” and the Ki [7] was “Not Active”.
In the case of NNC(=O)c1ccncc1 [ISONIAZID], the IC50 [1] was “Not Active”, the IC50 [2] was “Not Active” and the IC50 [3] was “Not Active”. The Ki [3] was “Not Active”, the IC50 [4] was “Not Active” and the Ki [4] was “Not Active”. The IC50 [5] was “Not Active”, the IC50 (Nitric oxide synthase 1) was “Not Active” and the IC50 [6] was “Not Active”. For the same molecule, the Ki [6] was “Not Active”, the IC50 (Cytochrome P450 2C19) was “Not Active” and the Ki (Cytochrome P450 2C19) was “Not Active”. For the same molecule, the IC50 (Cytochrome P450 2D6) was “Not Active”, the Ki (Cytochrome P450 2D6) was “Not Active” and the IC50 (Cytochrome P450 3A4) was “Not Active”. The Ki (Cytochrome P450 3A4) was “Not Active”, the IC50 (Estrogen receptor) was “Not Active” and the IC50 (Estrogen receptor beta) was “Not Active”. For the same molecule, the IC50 (Glucocorticoid receptor) was “Not Active”, the IC50 [7] was “Not Active” and the Ki [7] was “Not Active”.
For CO[C@@H]1[C@@H](O[C@@H]2O[C@H](C)[C@@H](O[C@H]3C[C@@](C)(O)[C@@H](OC(=O)CC(C)C)[C@H](C)O3)[C@H](N(C)C)[C@H]2O)[C@@H](CC=O)C[C@@H](C)[C@@H](O)/C=C/C=C/C[C@@H](C)OC(=O)C[C@H]1O [KITASAMYCIN], the IC50 [1] was “Not Active”, the IC50 [2] was “Not Active” and the IC50 [3] was “Not Active”. For the same molecule, the Ki [3] was “Not Active”, the IC50 [4] was “Not Active” and the Ki [4] was “Not Active”. For the same molecule, the IC50 [5] was “Not Active”, the IC50 (Nitric oxide synthase 1) was “Not Active” and the IC50 [6] was “Not Active”. For the same molecule, the Ki [6] was “Not Active”, the IC50 (Cytochrome P450 2C19) was “Not Active” and the Ki (Cytochrome P450 2C19) was “Not Active”. The IC50 (Cytochrome P450 2D6) was “Not Active”, the Ki (Cytochrome P450 2D6) was “Not Active” and the IC50 (Cytochrome P450 3A4) was “Not Active”. The Ki (Cytochrome P450 3A4) was “Not Active”, the IC50 (Estrogen receptor) was “Not Active” and the IC50 (Estrogen receptor beta) was “Not Active”. For the same molecule, the IC50 (Glucocorticoid receptor) was “Not Active”, the IC50 [7] was “Not Active” and the Ki [7] was “Not Active”.
CC(CCc1ccccc1)NCC(O)c1ccc(O)c(C(N)=O)c1 (stereo not drawn) [LABETALOL] showed a pIC50 ([1]; read-out: IC50) of 5.47, a pKi ([1]; read-out: Ki) of 5.48 and a pIC50 ([2]; read-out: IC50) of 5.52. The pKi ([2]; read-out: Ki) was 5.71, the IC50 [3] was “Not Active” and the Ki [3] was “Not Active”. For the same molecule, the IC50 [4] was “Not Active”, the Ki [4] was “Not Active” and the IC50 [5] was “Not Active”. For the same molecule, the IC50 (Nitric oxide synthase 1) was “Not Active”, the IC50 [6] was “Not Active” and the Ki [6] was “Not Active”. The IC50 (Cytochrome P450 3A4) was “Not Active”, the Ki (Cytochrome P450 3A4) was “Not Active” and the IC50 (Estrogen receptor) was “Not Active”. For the same molecule, the IC50 (Estrogen receptor beta) was “Not Active”, the IC50 (Glucocorticoid receptor) was “Not Active” and the IC50 [7] was “Not Active”. For the same molecule, the Ki [7] was “Not Active”.
With c1ccc2[nH]c(-c3cscn3)nc2c1 [THIABENDAZOLE] the IC50 [1] was “Not Active”, the IC50 [2] was “Not Active” and the IC50 [3] was “Not Active”. For the same molecule, the Ki [3] was “Not Active”, the IC50 [4] was “Not Active” and the Ki [4] was “Not Active”. The IC50 [5] was “Not Active”, the IC50 (Nitric oxide synthase 1) was “Not Active” and the IC50 [6] was “Not Active”. The Ki [6] was “Not Active”, the IC50 (Cytochrome P450 2C19) was “Not Active” and the Ki (Cytochrome P450 2C19) was “Not Active”. The IC50 (Cytochrome P450 2D6) was “Not Active”, the Ki (Cytochrome P450 2D6) was “Not Active” and the IC50 (Estrogen receptor) was “Not Active”. The IC50 (Estrogen receptor beta) was “Not Active”, the IC50 (Glucocorticoid receptor) was “Not Active” and the IC50 [7] was “Not Active”. The Ki [7] was “Not Active”.
